Experimental data as given in patent US20140142106A1, “METHOD FOR TREATING PERITONEAL FIBROSIS” (TAIPEI VETERANS GENERAL HOSPITAL, priority 2012, published 2014).

Key:
[1] = system: CB1R and CB2R expression in MeT-5A cells; experiment: PCR assessment of CB1R and CB2R expression after TGF-β1 treatment; assay type: cell-based, human; conditions: exogenous TGF-β1, RT-PCR
Method: (§1) The MeT-5A human mesothelial cell line, obtained from the American Type Culture Collection (ATCC, Manassas, Va., USA), was cultured in DMEM (Biological Industries, Israel) containing 15% fetal bovine serum (Thermo Scientific, Waltham, Mass., USA), and 1% penicillin/streptomycin/L-glutamine (Biological Industries, Israel). The primary culture of human peritoneal mesothelial cells (HPMC) were prepared as previously described. All patient materials were processed following the ethics regulations of the Institutional Review Board of Taipei Veterans General Hospital.
(§2) For mRNA expression analysis of peritoneal tissue TGF-β1, VEGF, and Snail, the rat peritoneum was resected and incubated with trypsin at 37° C. for 30 minutes. The mesothelium was then scratched from peritoneal surface and collected for reverse transcription-polymerase chain reaction (RT-PCR). In the mesothelial cell culture, the mRNA expression of CB1R, CB2R, and type I collagen were also assessed by the PCR analysis. Total RNA was extracted with TRIzol (Invitrogen, Carlsbad, Calif., USA). Contaminated genomic DNA was removed with RNAse-free DNAse (Ambion, Austin, Tex., USA) following the manufacturer's protocol. First-strand cDNA was synthesized from total RNA with Superscript™ first-strand cDNA synthesis system for RT-PCR (Invitrogen, Carlsbad, Calif., USA) using Oligo(dT) as primers. GAPDH was used as control. […]

[2] = system: MeT-5A human mesothelial cell line; experiment: TGF-β1-treated MeT-5A mesothelial cells: morphology, immunofluorescent staining; assay type: cell-based
Method: as §1
(§3) To assess the effects of CB1R antagonist on mesothelial cells, we pretreated the MeT-5A cells and RPMC with 5 μM of AM281 for 1 hour, and followed by simultaneous AM281 and TGF-β1 (R&D systems, Minneapolis, Minn., USA) treatment for 5 days. Various TGF-β1 concentrations (0.1 to 1.0 ng/mL) were used. In the CB2R experiment, AM1241 was used instead to test MeT-5A cells and HPMC.
For immunofluorescent studies, we grew mesothelial cells in slide flasks (Lab-Tek II; Nalge Nunc. Naperville, Ill., USA).
Cells were observed using a confocal LASER microscope (Leica, Wetzlar, Germany), and fluorescent intensity was analyzed using an image-processing software (AlphaEaseFC 4.0, Alpha Innotech, Santa Clara, Calif., USA). The cytoplasmic fluorescent intensity of individual cell is defined as integrated density value (IDV) of selected cytoplasmic area; the average fluorescent intensity of an image field is defined as average density value (ADV=total IDV/total cytoplasmic area).

[3] = system: MGO-induced peritoneal fibrosis; experiment: MGO-induced peritoneal fibrosis in rats, effects of CBR ligands (histology, morphometry); assay type: in vivo, Sprague-Dawley (SD) rats; conditions: 1 mg/kg/day in PDF i.p., n=6; for MGO-induced peritoneal thickening: 3 days pretreatment then 10 days with 6 mM MGO, Masson's trichrome
Method: (§4) All animal experiments were performed following the guidelines of the Institutional Committee for Animal Experimentation of Taipei Veterans General Hospital. Five week-old male Sprague-Dawley (SD) rats were purchased from the Laboratory Animal Center of National Yang-Ming University. Peritoneal dialysis fluid (PDF) was prepared according to Hirahara et al. [10;22], containing 2.5% glucose, 100 mmol/L NaCl, 35 mmol/L sodium lactate, 2 mmol/L CaCl2, and 0.7 mmol/L MgCl2, in a pH of 5.0. To test MGO effects, fifty mL/kg of PDF containing 0, 3, 6, 12 mM MGO (Sigma, St. Louis, Mo., USA) were injected intra-peritoneally for ten consecutive days. Dimethyl sulfoxide (DMSO) (Sigma, St. Louis, Mo., USA) was used as the solvent of MGO. For investigation of the effects of CBR ligands, SD rats were pretreated with PDF containing either a selective CB1R antagonist, AM281 (Alexis Biochemicals, Enzo Life Sciences, Farmingdale, N.Y., USA) (1 mg/kg/day) or a selective CB2R agonist, AM1241 (Sigma, St. Louis, Mo., USA) (1 mg/kg/day) for 3 days followed by continuous treatment of PDF containing respective CBR ligands (AM281 or AM1241) and 6 mM MGO for 10 days. Animals receiving PDF containing DMSO vehicle (without MGO) were used as control (n=6/group). All animals were euthanized at the end of experiments by exsanguinations under general anesthesia.
Certain sections of rat peritoneal tissues were frozen at −80° C. for immunofluorescent analysis, while the remainder were fixed in a neutral formalin solution and then embedded in paraffin for histological analysis. For immunofluorescent staining of CBR, rat brain and spleen were used as the positive control of CB1R and CB2R, respectively. For peritoneal thickness quantification, parietal peritoneum sized 1.0×0.5 cm were sampled from four separate peritoneal sites of each rat, including right ventral, left ventral, right lateral, and left lateral abdomen. For each sampling site, the peritoneal thickness was averaged from 15 evenly measured points. Tissue sections were stained with Masson's trichrome to quantify peritoneal fibrosis. The number of mesothelial cells was determined by morphometric method. The hematoxylin and eosin-stained sections were digitalized using an Aperio ScanScope slide scanner (Aperio, San Diego, Calif., USA) at its highest resolution. The mean mesothelial cells per mm surface of peritoneal membrane were counted from 15 points in each peritoneal tissue section from four separate peritoneal areas per animal. The peritoneal angiogenesis was quantified as described by Patel et al.. […] The mean vessels per mm peritoneal membrane were counted from 15 points in each peritoneal tissue section from four separate peritoneal areas per animal.

[4] = system: TGF-β1, VEGF, and Snail mRNA in rat peritoneal tissue; experiment: RT-PCR of rat peritoneal tissue after MGO treatment; assay type: in vivo, Sprague-Dawley (SD) rats; conditions: representative PCR
Method: as §4
as §2, with “protocol.” for “protocol. First-strand cDNA was synthesized from total RNA with Superscript™ first-strand cDNA synthesis system for RT-PCR (Invitrogen, Carlsbad, Calif., USA) using Oligo(dT) as primers. GAPDH was used as control.”

[5] = system: rat peritoneal mesothelial cells (RPMC); experiment: TGF-β1-treated rat peritoneal mesothelial cell (RPMC) culture: morphology; assay type: cell-based; conditions: 5 μM, 1 hour pretreatment, then with TGF-β1 for 5 days
Method: The primary culture of rat peritoneal mesothelial cells (RPMC) were isolated from 5-week-old male SD rats. Trypsin-EDTA (Gibco, Grand Island, N.Y., USA) (1.25%; 100 mL/kg) was injected intra-peritoneally and was then aspirated after a 2-hour dwelling. The aspirate was centrifuged for 10 minutes at 1500 rpm, and was washed with phosphate buffered saline, and then cultured in DMEM containing 10% fetal bovine serum, and 1% penicillin/streptomycin/L-glutamine.
as §3

[6] = system: TGF-β1-activated PI3K; experiment: Western blot of PI3K in MeT-5A cells; assay type: cell-based, human; conditions: p110 catalytic subunit
Method: as §3
Phosphatidyl inositol 3 kinase (PI3K) activity in the MeT-5A cells was assessed by Western blot. Cell lysates were subjected to SDS-PAGE and probed with primary antibodies against the p110 catalytic subunit of PI3K (Upstate Millipore, Billerica, Mass., USA) or β-actin (Amersham Life Science, Buckinghamshire, UK).

[7] = humans, long-term basis; cited from earlier work
[8] = system: rat peritoneum; experiment: Intra-peritoneal PDF containing MGO in rats (peritoneal injury); assay type: in vivo, Sprague-Dawley (SD) rats; conditions: n=6
Method: All animal experiments were performed following the guidelines of the Institutional Committee for Animal Experimentation of Taipei Veterans General Hospital. Five week-old male Sprague-Dawley (SD) rats were purchased from the Laboratory Animal Center of National Yang-Ming University. Peritoneal dialysis fluid (PDF) was prepared according to Hirahara et al. [10;22], containing 2.5% glucose, 100 mmol/L NaCl, 35 mmol/L sodium lactate, 2 mmol/L CaCl2, and 0.7 mmol/L MgCl2, in a pH of 5.0. To test MGO effects, fifty mL/kg of PDF containing 0, 3, 6, 12 mM MGO (Sigma, St. Louis, Mo., USA) were injected intra-peritoneally for ten consecutive days. Dimethyl sulfoxide (DMSO) (Sigma, St. Louis, Mo., USA) was used as the solvent of MGO. […]
Certain sections of rat peritoneal tissues were frozen at −80° C. for immunofluorescent analysis, while the remainder were fixed in a neutral formalin solution and then embedded in paraffin for histological analysis. […] For peritoneal thickness quantification, parietal peritoneum sized 1.0×0.5 cm were sampled from four separate peritoneal sites of each rat, including right ventral, left ventral, right lateral, and left lateral abdomen. For each sampling site, the peritoneal thickness was averaged from 15 evenly measured points. […] The number of mesothelial cells was determined by morphometric method. […]

[9] = system: human peritoneal mesothelial cells (HPMC); experiment: PCR analysis of type I collagen in TGF-β1-treated HPMC; assay type: cell-based; conditions: low TGF-β1 concentrations (0.01-0.05 ng/mL), differences not statistically significant
Method: as §1, §3
For mRNA expression analysis of peritoneal tissue TGF-β1, VEGF, and Snail, the rat peritoneum was resected and incubated with trypsin at 37° C. for 30 minutes. The mesothelium was then scratched from peritoneal surface and collected for reverse transcription-polymerase chain reaction (RT-PCR). In the mesothelial cell culture, the mRNA expression of CB1R, CB2R, and type I collagen were also assessed by the PCR analysis. […]

[10] = in the presence of TGF-β1, immunofluorescent staining

TGF-β1: exogenous TGF-β1 (R&D systems) used to treat mesothelial cells
CBR levels (CB1R, CB2R mRNA) [1]: no significant effect

Cc1c(C(=O)NN2CCOCC2)nn(-c2ccc(Cl)cc2Cl)c1-c1ccc(I)cc1 [AM281, N-(morpholin-1-yl)-1-(2,4-dichlorophenyl)-5-(4-iodophenyl)-4-methyl-1H-pyrazole-3-carboxamide]
TGF-β1-induced cell elongation ([2]; 5 μM, 1 hour pretreatment, then with TGF-β1 for 5 days): reduces
expression of E-cadherin [2, 10]: preserving
expression of cytokeratin 8/18 [2, 10]: preserving
type I collagen synthesis [2, 10]: inhibited
MGO-induced mesothelial cell detachment ([3]; 6 mM MGO 10 days): attenuated
MGO-induced angiogenesis ([3]; 6 mM MGO 10 days, α-SMA staining): attenuated
MGO-induced peritoneal thickening [3]: significantly attenuated
up-regulated Snail after MGO treatment [4]: attenuated
up-regulated TGF-β1 after MGO treatment [4]: attenuated
up-regulated VEGF after MGO treatment [4]: attenuated
TGF-β1-induced cell elongation [5]: reduces
TGF-β1-activated PI3K [6]: suppressed

C=C(C)[C@@H]1CCC(C)=C[C@H]1c1c(O)cc(CCCCC)cc1O [cannabidiol]
tolerability on long-term administration [7]: well-tolerated without adverse effects

CC(=O)C=O [MGO, methylglyoxal]
peritoneal thickness ([8]; PDF containing 0, 3, 6, 12 mM MGO i.p. for ten consecutive days): significant increase
surface mesothelial cells ([8]; higher concentration of MGO (6-12 mM), i.p. ten days): prominent loss

CN1CCCCC1Cn1cc(C(=O)c2cc([N+](=O)[O-])ccc2I)c2ccccc21 (stereo not drawn) [AM1241, (2-iodo-5-nitrophenyl)-[1-[(1-methylpiperidin-2-yl)methyl]indol-3-yl]methanone]
type I collagen synthesis [9]: tended to suppress
MGO-induced peritoneal thickening [3]: significantly attenuated
